Results reported in EP2228429A1, “Shading dye and catalyst combination” (Unilever PLC, priority 2009, dated 2010).

How the values were obtained:
[1] = Example 2: shading of cotton washed with Persil Colour powder containing acid blue 25, catalyst and hydrogen peroxide (reflectometer, delta E); parameters: key: reflectometer delta E vs cloth washed without added dye or bleach; settings: 0.3% acid blue 25 in powder, 2.5g/L, 30°C, 30 minutes
Description: Various amounts of catalyst AC and DC were separately added to Persil Colour (TM) washing powder, such that when the powder was dosed at 2.5g/L a 1, 2, 4 and 8 micromolar solution of the catalysts were obtained. Persil Colour is a commercial washing powder containing 5-15% anionic surfactant and non-ionic surfactant, 15-30% zeolite and less than 5% soap, polycarboxylate and phosphate. It also contains enzymes. 0.3% of the dye acid blue 25 was also added to the powder. The so-created powders were used to wash bleach non-mercerised woven cotton at 30°C, for 30 minutes with a liquor to cloth ration of 30:1 and 2.5g/L powder. Various amounts of hydrogen peroxide was added to activate the catalyst. Following the wash the clothes were rinsed dried and the shading on the cloth measured using a reflectometer and expressed as the delta E values relative to cloth washed with Persil Colour without added dye or bleach system.

[2] = Example 3: bleaching of BC1 stain monitor cloth with catalyst AC and hydrogen peroxide (delta E); settings: pH=10, 0.5g/L LAS, 30°C, 30 minutes
Description: BC1 (fixed tea stain) bleachable stain test monitor cloth was washed in a bicarbonate buffer (pH=10) with 0.5g/L LAS surfactant, a Liquor to Cloth ratio of 60:1, a temperature of 30°C and a wash time of 30 minutes. The experiment was repeated with various levels of catalyst AC and hydrogen peroxide. The final colour of the cloth was measured and expressed as the delta E relative to a clean piece of cotton. Lower values indicate effective bleaching of the stain.

[3] = Example 7: shading of white cotton washed with Persil Colour containing direct violet 51 and bleach system; settings: 100 ppb direct violet 51, 5g/L Persil Colour, 40°C, 30 minutes
Description: (§1) White non-mercerised cotton sheeting was washed at 40°C in 5g/L Persil Colour for 30 minutes with a liquor to cloth ratio of 60:1. Persil Colour is a zeolite/anionic/non-ionic surfactant based washing powder. Direct Violet 51 was added to the powder such that 100 ppb of direct violet 51 was in the wash liquor.
(§2) The experiment was repeated with the addition of 10 micromolar catalyst with 10 millimolar peroxide and 2 micromolar catalyst with 2 millimolar peroxide. Following rinsing and drying the colour of the cloth was measured relative to a white cotton control cloth washed without addition of direct violet 51.

[4] = Example 7: bleaching of BC1 monitor washed with Persil Colour and bleach system; settings: no direct violet 51, liquor to cloth ratio 120:1
Description: as §1, §2
The experiment was then repeated using a BC1 model tea bleach monitor and a liquor to cloth ratio of 120:1. For clarity no direct violet 51 was added to the Persil Colour in this case.

[5] = Example 1: bleaching of shading dyes in pH=10 buffer by catalyst AC and hydrogen peroxide, from optical density; settings: after 30 minutes at 20 °C; for % bleaching (a): (a) 1 micromolar AC, 1 millimolar hydrogen peroxide; for % bleaching (b): (b) 4 micromolar AC, 4 millimolar hydrogen peroxide
Description: A selection of shading dyes, which deposit onto cotton from wash solutions and have varying structures, was made. Solution of these dyes were made in pH=10 buffer such that the optical density at 1 cm was approximately 1. To this solution the catalyst AC was added alongside hydrogen peroxide such that the concentrations were: • (a) 1 micromolar AC, 1 millimolar hydrogen peroxide • (b) 4 micromolar AC, 4 millimolar hydrogen peroxide The optical density of the dye was measured at the beginning of the experiment and after 30 minutes at 20 °C. From these measurements the % of dye bleaching was calculated using the equation % bleaching = 100 x (ODinitial-OD30 minutes)/ODinitial [formula]

[6] = Example 5: dye bleaching in solution at pH=10 by catalyst and peroxide
Excerpt: Bleaching was much slower with […] 2 millimolar peroxide.

[7] = Example 6: take up of hydrophobic shading dyes by polyester in a wash with catalyst and hydrogen peroxide (delta E); settings: 0.2ppm dye, 1.8g/L powder, 30 minutes at 20°C
Description: White knitted polyester was washed for 30 minutes at 20°C in 1.8g/L of Brihlante™ washng powder (ex Brasil) with a liquor to cloth ration of 100:1. This is a phosphate/anionic surfactant based powder. Various levels of catalyst BC and hydrogen peroxide was added to the wash liquor alongside 0.2ppm of the hydrophobic shading dyes disperse blue 79:1 (azo dye) and solvent violet 13 (anthraquinone dye). The take up of the hydrophobic shading by the polyester was measured as the delta E relative to white cotton and the results shown below.

[8] = Example 4: bleaching of black tea stain on cotton sheeting; settings: pH=10 solution, 2 micromolar DC and 2 millimolar peroxide; versus control with 2 micromolar Mn(II) and 2 millimolar peroxide
Description: Black tea beverage was created by placing 1 PG Tips pyramid tea bag in 400ml of boiled ultrapure water for 5 minutes. The tea bag was then removed and the beverage cooled to room temperature. Non-mercerised non-fluorescent white cotton sheeting was dipped in the cold tea and removed. The cloth was left to dry for 1 day in the dark, then used for experiments.

[9] = 1 micromolar catalyst, 1 millimolar H2O2, relative to cloth washed without dye or bleach system
[10] = 2 micromolar catalyst, 2 millimolar H2O2
[11] = 4 micromolar catalyst, 4 millimolar H2O2
[12] = 8 micromolar catalyst, 8 millimolar H2O2
[13] = 2 micromolar catalyst, 2 millimolar H2O2, colour relative to white cotton control washed without dye
[14] = 10 micromolar catalyst, 10 millimolar H2O2
[15] = pH=10, 2 micromolar catalyst with 2 millimolar peroxide
[16] = pH=10, 10 micromolar catalyst with 10 millimolar peroxide
[17] = 0 micromolar catalyst, 0 millimolar H2O2
[18] = 1 micromolar catalyst, 1 millimolar H2O2
[19] = 2 millimolar H2O2 without catalyst
[20] = 10 millimolar H2O2 without catalyst

With `COC(=O)C12CN(C(C)CN(C)C)CC(C(=O)OC)(C1=O)C(c1ccccn1)N(C)C2c1ccccn1` (stereo not shown) [AC] the “Delta E” value [1, 9] was 5.1, the “Delta E” value [1, 10] was 2.0 and the “Delta E” value [1, 11] was 0.4. For the same molecule, the “Delta E” value [1, 12] was 0.3, the “Delta E” value ([2]; 1 micromolar AC, 1 millimolar H2O2, relative to clean cotton, lower = effective bleaching) was 17.0 and the “Delta E” value ([2]; 1 micromolar AC, 2 millimolar H2O2) was 16.2. The “Delta E” value ([2]; 2 micromolar AC, 1 millimolar H2O2) was 15.9, the “Delta E” value ([2]; 2 micromolar AC, 2 millimolar H2O2) was 14.6 and the White cotton [3, 13] was 1.5. It also gave a White cotton [3, 14] of 0.5, a BC1 [4, 10] of 16.5 and a BC1 [4, 14] of 10.9.

In the case of `Nc1c(N=Nc2ccc([N+](=O)[O-])cc2)c(S(=O)(=O)[O-])cc2cc(S(=O)(=O)[O-])c(N=Nc3ccccc3)c(O)c12.[Na+].[Na+]` [Acid black 1], the “% bleaching (a)” value [5] is reported as 27% and the “% bleaching (b)” value [5] is reported as 53%.

For `Nc1c(S(=O)(=O)[O-])cc(Nc2ccccc2)c2c1C(=O)c1ccccc1C2=O.[Na+]` [Acid blue 25], the “% bleaching (a)” value [5] was 66% and the “% bleaching (b)” value [5] was 96%.

With `O=S(=O)([O-])c1cccc(N=Nc2ccc(N=Nc3ccc(Nc4ccccc4)c4c(S(=O)(=O)[O-])cccc34)c3ccccc23)c1.[Na+].[Na+]` [Acid blue 113] the “% bleaching (a)” value [5] was 79% and the “% bleaching (b)” value [5] was 99%.

In the case of `COC(=O)C12CN(CCN(C)C)CC(C(=O)OC)(C1=O)C(c1ccccn1)N(C)C2c1ccccn1` (stereo not shown) [BC], the “bleaching of Acid blue 25 in solution” value [6, 15] is reported as “much slower”, the “bleaching of Direct violet 51 in solution” value [6, 15] is reported as “much slower” and the “bleaching of Acid blue 25 in solution” value [6, 16] is reported as “effectively bleached”. For the same molecule, the “bleaching of Direct violet 51 in solution” value [6, 16] was “effectively bleached”.

With `COc1cc(N=Nc2c(Br)cc([N+](=O)[O-])cc2[N+](=O)[O-])c(NC(C)=O)cc1N(CCOC(C)=O)CCOC(C)=O` [Blue 79:1, disperse blue 79:1] the “Delta E” value [7, 17] was 2.8, the “Delta E” value [7, 18] was 2.8 and the “Delta E” value [7, 14] was 2.3.

With `COC(=O)C12CN(CCN3CCOCC3)CC(C(=O)OC)(C1=O)C(c1ccccn1)N(C)C2c1ccccn1` (stereo not shown) [CC] the “bleaching of Acid blue 25 in solution” value [6, 15] was “much slower”, the “bleaching of Direct violet 51 in solution” value [6, 15] was “much slower” and the “bleaching of Acid blue 25 in solution” value [6, 16] was “effectively bleached”. For the same molecule, the “bleaching of Direct violet 51 in solution” value [6, 16] was “effectively bleached”.

With `OO` [Catalyst H2O2, hydrogen peroxide] the “Delta E” value ([2]; 0 micromolar AC, 1 millimolar H2O2 alone) was 18.5, the “Delta E” value ([2]; 0 micromolar AC, 2 millimolar H2O2 alone) was 18.1 and the White cotton [3, 19] was 1.5. For the same molecule, the White cotton [3, 20] was 1.4, the BC1 [4, 19] was 19.3 and the BC1 [4, 20] was 18.9.

With `Oc1cc(-c2ccccn2)nc(-c2ccccn2)c1` [DC] the “Delta E” value [1, 9] was 12.3, the “Delta E” value [1, 10] was 12.2 and the “Delta E” value [1, 11] was 12.0. The “Delta E” value [1, 12] was 11.7 and the “bleaching of the tea stain” value [8] was “significantly above that of a control solution”.

With `COc1cc(N=Nc2c(C)cc(C)cc2S(=O)(=O)[O-])c(C)cc1N=Nc1c(S(=O)(=O)[O-])cc2cc(Nc3ccccc3)ccc2c1O.[Na+].[Na+]` [Direct violet 51] the “% bleaching (a)” value [5] was 1% and the “% bleaching (b)” value [5] was 29%.

With `COC(=O)C12CN(CCN3CCCC3)CC(C(=O)OC)(C1=O)C(c1ccccn1)N(C)C2c1ccccn1` (stereo not shown) [EC] the White cotton [3, 13] was 1.5, the White cotton [3, 14] was 0.7 and the BC1 [4, 10] was 17.5. The BC1 [4, 14] was 13.1.

In the case of `Cc1ccc(Nc2ccc(O)c3c2C(=O)c2ccccc2C3=O)cc1` [Violet 13, solvent violet 13], the “Delta E” value [7, 17] is reported as 4.0, the “Delta E” value [7, 18] is reported as 1.6 and the “Delta E” value [7, 14] is reported as 0.2.
